The text below walks through data of PubChem BioAssay (NCI).

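Grown in 96-well plates, cells were treated for 48 hours with each compound at five concentrations. Insufficient inhibition: endpoint recorded as highest concentration tested. Abbreviation: GI50, concentration required for 50% inhibition of growth. At the TGI there is no net growth.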

Test systems include KM12 colon; 786-0 renal; NCI-H226 lung; MDA-N; IGROV1 ovarian; ACHN renal; SF-268 CNS; COLO 205 colon; DU-145 prostate; HCT-116 colon; SF-539 CNS.
Common to all, as to assay: inhibition of tumour cell growth, NCI panel, 48 h

Consider `O=C(Nc1ccc2ccccc2c1)c1cc2cc(CCl)ccc2oc1=O`, for which the TGI in the test on KM12 colon, with 786-0 renal, in the test with NCI-H226 lung, in the test on MDA-N, in the test on IGROV1 ovarian and in the test on ACHN renal was more than 100 µM throughout. Also, the TGI in the test on SF-268 CNS was 73.5 µM; in the test on COLO 205 colon it was more than 100 µM; in the test with DU-145 prostate it was more than 100 µM; with HCT-116 colon it was more than 100 µM.

For `C(=C/c1nc2ccccc2o1)/c1ccc2c(c1)OCO2`, the TGI with KM12 colon is 26.1 µM; with NCI-H226 lung it was 55.2 µM; in the test on IGROV1 ovarian it was more than 83 µM; in the test on SF-539 CNS, 34.6 µM; in the test with SF-268 CNS, more than 100 µM; with COLO 205 colon, more than 100 µM. The same compound yielded a TGI with HCT-116 colon of 33.3 µM.

Regarding `CC1OC(=O)C(C(C)C)NC(=O)C(C(C)C)OC(=O)C(C(C)C)NC(=O)C(C)OC(=O)C(C(C)C)NC(=O)C(C(C)C)OC(=O)C(C(C)C)NC(=O)C(C)OC(=O)C(C(C)C)NC(=O)C(C(C)C)OC(=O)C(C(C)C)NC1=O` (stereo not given), the results for the GI50 in the test on KM12 colon, with SF-539 CNS and with COLO 205 colon were less than 0.0001 µM, 0.000484 µM and less than 0.0001 µM, respectively. For the same compound, the TGI with NCI-H226 lung is 0.779 µM; in the test with IGROV1 ovarian, 5.34 µM; in the test with ACHN renal, less than 0.0001 µM; with SF-539 CNS, 0.328 µM; in the test with SF-268 CNS, 5.09 µM; in the test with HCT-116 colon, 2.91 µM.

Consider `CCN(CC)CCO[Si](OCCN(CC)CC)(OCCN(CC)CC)OCCN(CC)CC`, for which the TGI in the test with KM12 colon, in the test on NCI-H226 lung, in the test with IGROV1 ovarian, with SF-539 CNS and in the test with COLO 205 colon was more than 100 µM throughout.

For the compound `O=C1N(c2ccccc2)C(=S)/C(=C/c2ccc(Cl)cc2)N1c1ccc(Cl)cc1`, the TGI is more than 100 µM with KM12 colon; 64.2 µM in the test on 786-0 renal; more than 100 µM with MDA-N; more than 100 µM with IGROV1 ovarian; 49.1 µM in the test on ACHN renal; 41.2 µM with SF-539 CNS. The TGI in the test with SF-268 CNS, in the test on COLO 205 colon, in the test on DU-145 prostate and in the test on HCT-116 colon was more than 100 µM each time.

For `NC(=O)Oc1ccccc1`, the TGI in the test with KM12 colon, in the test on NCI-H226 lung, in the test on MDA-N, in the test with ACHN renal, in the test on SF-268 CNS and with COLO 205 colon was more than 100 µM in each case. Also, the TGI with DU-145 prostate and in the test on HCT-116 colon was more than 100 µM throughout.

`CCn1c2ccccc2c2cc(Nc3cc(C)[nH]c(=O)n3)ccc21`: the TGI with KM12 colon, in the test with 786-0 renal, in the test on MDA-N, with ACHN renal, with SF-539 CNS and in the test with SF-268 CNS was more than 100 µM each time. Also, the TGI in the test with COLO 205 colon, in the test with DU-145 prostate and with HCT-116 colon was more than 100 µM in each case.

For `S=c1nc[nH]c2c1ncn2C1CCCO1` (stereo not given), the TGI in the test on KM12 colon, in the test with 786-0 renal, in the test with IGROV1 ovarian, in the test with ACHN renal, in the test on SF-539 CNS and in the test with SF-268 CNS was more than 100 µM each time. Moreover, the TGI in the test with COLO 205 colon and in the test on HCT-116 colon was more than 100 µM in each case.

Regarding `Cc1ccc(S(=O)(=O)Nn2c(O)c(C#N)c(-c3ccc([N+](=O)[O-])cc3)c(C#N)c2=O)cc1`, the TGI with KM12 colon, with 786-0 renal, with NCI-H226 lung, in the test on MDA-N, in the test on IGROV1 ovarian and with ACHN renal was more than 100 µM in each case. Further, the TGI with SF-539 CNS, in the test on SF-268 CNS, in the test on COLO 205 colon and with HCT-116 colon was more than 100 µM each time.

Take `CCOC(=O)C(C)N1C(=O)c2ccccc2S1(=O)=O` (stereo not given): the TGI in the test with KM12 colon, in the test with NCI-H226 lung, in the test on IGROV1 ovarian, in the test with SF-539 CNS, with SF-268 CNS and with COLO 205 colon was more than 100 µM each time. The compound also registered a TGI in the test on HCT-116 colon of more than 100 µM.

Regarding `CCOC(=O)C1=C(C)N(C2OC(COC(=O)c3ccccc3)C(OC(=O)c3ccccc3)C2OC(=O)c2ccccc2)C(=S)NC1c1ccccc1` (stereo not given), the TGI in the test with KM12 colon, in the test with NCI-H226 lung, in the test on IGROV1 ovarian, in the test with ACHN renal, in the test on SF-539 CNS and in the test on SF-268 CNS was more than 100 µM in each case. The TGI in the test with COLO 205 colon and in the test on HCT-116 colon was more than 100 µM in each case.

With `COc1ccc(C2=NC(c3ccc(Cl)cc3)C(c3ccc(Cl)cc3)N2C(=O)N2CCNC(=O)C2)c(OC(C)C)c1` (stereo not given), the GI50 was 1.84 µM with KM12 colon; 2.08 µM with NCI-H226 lung; 1.76 µM in the test with IGROV1 ovarian; 1.89 µM in the test with ACHN renal; 2.02 µM with SF-539 CNS; 2.11 µM in the test on SF-268 CNS. The GI50 with COLO 205 colon is 3.31 µM; with DU-145 prostate, 1.8 µM; with HCT-116 colon, 1.81 µM. Moreover, the TGI with KM12 colon is 3.69 µM; in the test with NCI-H226 lung, 4.19 µM; in the test with IGROV1 ovarian it was 3.29 µM; in the test on ACHN renal it was 3.33 µM; with SF-539 CNS it was 4.01 µM; in the test on SF-268 CNS it was 3.97 µM. The TGI in the test with COLO 205 colon is more than 10 µM; in the test on DU-145 prostate it was 3.54 µM; in the test with HCT-116 colon it was 3.2 µM.

On to `CN1CCC2(CC1)C(=NC1CCCCC1)NC(=O)N2c1ccccc1`, for which the TGI in the test on KM12 colon, in the test on 786-0 renal, in the test on NCI-H226 lung, with IGROV1 ovarian, in the test with ACHN renal and in the test with SF-268 CNS was more than 100 µM throughout. The TGI with COLO 205 colon, in the test on DU-145 prostate and in the test on HCT-116 colon was more than 100 µM in each case.

Regarding `O=C(CCC1CCCCN1)Nc1ccc2c(c1)C(=O)c1ccc(NC(=O)CCN3CCCCC3)cc1C2=O` (stereo not given), the TGI in the test with KM12 colon came out at 6.99 µM; in the test on NCI-H226 lung, 18.6 µM; in the test on IGROV1 ovarian it was 31.2 µM; with SF-539 CNS, 8.46 µM; in the test with SF-268 CNS it was 25.4 µM; with COLO 205 colon it was 2.65 µM. In addition, the TGI in the test with HCT-116 colon is 4.96 µM.
